Measured values reported in PMC11091879, “Inhibitors of the Thioesterase Activity of Mycobacterium tuberculosis Pks13 Discovered Using DNA-Encoded Chemical Library Screening” (ACS Infectious Diseases, 2024).
pIC50: −log10 of the molar value. Converted amounts (≈) assume the structure as drawn. Where two headings read alike, the source gives them in different places.

How the values were obtained:
Pks13-TE = Pks13-TE (Mycobacterium tuberculosis, UniProt I6X8D2); assay: biochemical; format: binding; settings: for IC50: IC50 (uM)
Pks13-TE, sequence (I6X8D2 1451-1733 limits assumed): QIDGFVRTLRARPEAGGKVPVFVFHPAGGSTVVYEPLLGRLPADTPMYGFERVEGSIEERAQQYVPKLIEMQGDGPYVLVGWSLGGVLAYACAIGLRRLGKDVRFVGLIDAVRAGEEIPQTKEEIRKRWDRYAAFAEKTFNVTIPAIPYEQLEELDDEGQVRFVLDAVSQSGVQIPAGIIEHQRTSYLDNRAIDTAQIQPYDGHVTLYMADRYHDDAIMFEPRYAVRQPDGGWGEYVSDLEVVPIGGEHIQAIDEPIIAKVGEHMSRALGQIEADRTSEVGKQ

WT H37Rv = assay: microbe, parasite or virus in culture; format: cell-based, Mycobacterium tuberculosis; settings: for MIC: Mycobacterium tuberculosis, H37RV
[1] = tested on: pks13-TetON -ATc (hypomorph); format: cell-based, Mycobacterium tuberculosis
[2] = tested on: pks13-TetON +ATc (Pks13-hypermorph); format: cell-based, Mycobacterium tuberculosis

| Compound | MIC (WT H37Rv; read-out: WT H37Rv MIC (uM)) | IC50 (Pks13-TE) | Hypomorph MIC fold shift (WT/-ATc) [1] | Hypermorph MIC fold shift (+ATc/WT) [2] | pIC50 (Pks13-TE; read-out: IC50) | MIC (WT H37Rv; read-out: WT H37Rv MIC) | also measured |
| --- | --- | --- | --- | --- | --- | --- | --- |
| CCC(C)(C)c1ccc(S(=O)(=O)N[C@@H](Cc2ccccc2)[C@@H](O)Cc2nc(N(C)C)no2)cc1 [X20348] | > 250 µM | – | – | – | – | – | pIC50 (Pks13-TE; enzyme potency / IC50): 6.33 |
| Cc1cc(C(=O)NCc2ccccc2)nc(N2CCC(C(=O)N3CCN(C(=O)c4cnc5c(C)cccc5c4)CC3)CC2)n1 [X20377] | 0.21 µM (≈ 0.124 µg/mL) | 0.85 µM | 3.5 fold | 2.6 fold | – | – | MIC (WT H37Rv; read-out: MIC (Mtb inhibition)): 0.21 µM (≈ 0.124 µg/mL) |
| COc1ccc2[nH]c(C(=O)N3CCN(C(=O)C4CCN(c5nc(C)cc(C(=O)NCc6ccccc6)n5)CC4)CC3)cc2c1OC [X20419] | 0.044 µM (≈ 0.0275 µg/mL) | 0.48 µM | 1.8 fold | 2.5 fold | – | – | fold improvement in enzyme inhibition (Pks13-TE): 30 fold; MIC (WT H37Rv; read-out: MIC (Mtb inhibition)): 0.04 µM (≈ 0.025 µg/mL) |
| Cc1cc(C(=O)NCc2ccccc2)nc(N2CCC(CN3CCN(C(=O)c4cnc5c(C)cccc5c4)CC3)CC2)n1 [X21352] | 5.2 µM (≈ 3 µg/mL) | 0.46 µM | 1.7 fold | 6.1 fold | – | – | – |
| Cc1cc(C(=O)NCc2ccccc2)nc(N2CCC(C(=O)N3CCN(C(=O)c4ccc5nc(C)sc5c4)CC3)CC2)n1 [X21408] | – | – | 1.5 fold | 5.4 fold | 6.34 | – | WT H37Rv MIC (WT H37Rv): 0.10 µM |
| COc1ccn2nc(C(=O)N3CCN(C(=O)C4CCN(c5nc(C)cc(C(=O)NCc6ccccc6)n5)CC4)CC3)cc2c1 [X21411] | 0.21 µM (≈ 0.125 µg/mL) | 0.48 µM | 2.1 fold | 6.0 fold | – | – | – |
| Cc1cccc2cc(C(=O)N3CCN(C(=O)C4CCN(c5nccc(C(=O)NCc6ccccc6)n5)CC4)CC3)cnc12 [X21424] | 2.6 µM (≈ 1.5 µg/mL) | 0.39 µM | 3.0 fold | 5.8 fold | – | – | – |
| CNC(=O)c1cc(C(C)C)nc(N2CCC(C(=O)N3CCN(C(=O)c4ccc(-n5nc(C)cc5C)nc4)CC3)CC2)n1 [X21426] | – | – | 1.5 fold | 4.8 fold | 6.21 | 13 µM (≈ 7.46 µg/mL) | – |
| Cc1cc(C(=O)NCc2ccncc2)nc(N2CCC(C(=O)N3CCN(C(=O)c4cnc5c(C)cccc5c4)CC3)CC2)n1 [X21429] | 0.24 µM (≈ 0.142 µg/mL) | 0.42 µM | 2.3 fold | 3.9 fold | – | – | MIC (WT H37Rv; read-out: MIC (whole cell activity)): 0.24 µM (≈ 0.142 µg/mL) |
| COc1ccc(Cl)cc1-c1ccc(-c2cn(CCc3ccc(C(=O)N(C)C)cc3)nn2)cn1 [X21434] | 1.1 µM (≈ 0.508 µg/mL) | 0.46 µM | 2.4 fold | 5.4 fold | – | – | – |
| COc1ccc(OC)c(-c2ncc(-c3cn(CCc4ccc(C(=O)N(C)C)cc4)nn3)cn2)c1 [X21435] | > 125 µM | 0.58 µM | – | – | – | – | – |
| COc1ccc(Cl)c(-c2ccc(-c3cn(CCc4ccc(C(=O)N(C)C)cc4)nn3)cn2)c1 [X21464] | 5.5 µM (≈ 2.54 µg/mL) | 0.38 µM | 2.4 fold | 3.8 fold | – | – | – |
| COc1ccc(OC)c(-c2ccc(-c3nc(N(C)Cc4ccc(C(=O)N(C)C)cc4)no3)cn2)c1 [X21475] | – | – | – | – | < 4.70 | – | – |
| Cc1cccc(-c2ccc(-c3cn(CCc4ccc(C(=O)N(C)C)cc4)nn3)cn2)c1C [X21478] | 12 µM (≈ 5.11 µg/mL) | 0.47 µM | 1.9 fold | 17 fold | – | – | – |
| Cc1cccc2cc(-c3cn(CCc4ccc(C(=O)N(C)C)cc4)nn3)cnc12 [X21497] | – | – | – | – | < 5.00 | – | WT H37Rv MIC (WT H37Rv): > 125 µM |
| COc1ccc(OC)c(-c2ccc(-c3cn(CCc4ccncc4)nn3)cn2)c1 [X21498] | – | – | 1.5 fold | 2.7 fold | 6.43 | – | WT H37Rv MIC (WT H37Rv): 0.26 µM |
| COc1ccc(OC)c(-c2ncc(-c3cn(CCc4ccc(C(=O)N(C)C)cc4)nn3)cc2C)c1 [X21499] | 18 µM (≈ 8.49 µg/mL) | 0.58 µM | 1.6 fold | – | – | – | – |
| CN(C)C(=O)c1ccc(CCn2cc(-c3ccc(-c4ccccc4C(F)(F)F)nc3)nn2)cc1 [X21502] | – | – | – | – | 6.23 | > 125 µM | – |
| COc1ccc(OC)c(-c2ccc(-c3cn(CCc4ccc(-c5nccn5C)cc4)nn3)cn2)c1 [X21542] | – | – | 1.9 fold | 2.7 fold | 6.30 | 0.17 µM (≈ 0.0793 µg/mL) | – |

| Compound | MIC (WT H37Rv; read-out: WT H37Rv MIC (uM)) | IC50 (Pks13-TE) | Hypomorph MIC fold shift (WT/-ATc) [1] | Hypermorph MIC fold shift (+ATc/WT) [2] | pIC50 (Pks13-TE; read-out: IC50) | MIC (WT H37Rv; read-out: WT H37Rv MIC) | also measured |
| --- | --- | --- | --- | --- | --- | --- | --- |
| COc1ccc(OC)c(-c2ccc(-c3cn(CCc4ccc5c(cnn5C)c4)nn3)cn2)c1 [X21543] | – | – | 3.4 fold | 1.7 fold | 6.31 | 0.35 µM (≈ 0.154 µg/mL) | – |
| COc1ccc(OC)c(-c2ccc(-c3cn(CCc4ccc5nn(C)cc5c4)nn3)cn2)c1 [X21544] | – | – | 2.7 fold | 1.5 fold | 6.26 | 0.47 µM (≈ 0.207 µg/mL) | – |
| COc1ccc(OC)c(-c2ccc(-c3cn(CCc4ccc(S(=O)(=O)N(C)C)cc4)nn3)cn2)c1 [X21545] | – | – | 3.2 fold | 2.8 fold | 6.28 | 1.3 µM (≈ 0.642 µg/mL) | – |
| Cc1ccccc1-c1ncc(-c2cn(CCc3ccc(C(=O)N(C)C)cc3)nn2)s1 [X21546] | 18 µM (≈ 7.52 µg/mL) | 0.37 µM | 1.9 fold | – | – | – | – |
| COc1ccc(OC)c(-n2ncc(-c3cn(CCc4ccc(C(=O)N(C)C)cc4)nn3)c2C)c1 [X21558] | – | – | – | – | < 4.70 | – | – |
| Cc1c(-c2cn(CCc3ccc(C(=O)N(C)C)cc3)nn2)cnn1-c1ccccc1F [X21774] | – | – | – | – | < 5.00 | > 125 µM | – |
| COc1ccn2nc(C(=O)N3CCN(C(=O)C4CCN(c5nc(C)cc(C(=O)N6CCCC6)n5)CC4)CC3)cc2c1 [X22276] | – | – | – | – | < 5.00 | > 125 µM | – |
| COc1ccn2nc(C(=O)N3CCN(C(=O)C4CCN(c5nc(C)cc(C(F)(F)F)n5)CC4)CC3)cc2c1 [X22279] | – | – | – | – | < 5.00 | > 125 µM | – |
| CNC(=O)c1cc(C)nc(N2CCC(C(=O)N3CCCN(C(=O)c4cnn5ccc(OC)cc45)CC3)CC2)n1 [X22280] | – | – | – | – | < 5.00 | > 125 µM | – |
| COc1ccc(F)cc1-c1ccc(-c2cn(Cc3ccncc3)nn2)cn1 [X22307] | – | – | – | – | < 5.00 | – | WT H37Rv MIC (WT H37Rv): > 125 µM |
| Cc1ccc(F)cc1-c1ccc(-c2cn(CCc3ccc4c(cnn4C)c3)nn2)cn1 [X22309] | – | – | – | – | 6.21 | > 125 µM | – |
| Cn1ncc2cc(CCn3cc(-c4ccc(-c5cc(C(F)(F)F)ccc5F)nc4)nn3)ccc21 [X22311] | – | – | – | – | 6.11 | > 125 µM | – |
| Cn1ncc2cc(CCn3cc(-c4ccc(N5CC(F)(F)C5)nc4)nn3)ccc21 [X22317] | – | – | – | – | < 5.00 | > 125 µM | – |
| Cn1ncc2cc(CCn3cc(-c4ccc(OCc5ccccc5)nc4)nn3)ccc21 [X22346] | – | – | – | – | < 5.00 | – | WT H37Rv MIC (WT H37Rv): > 125 µM |
| COc1ccc(OC)c(-c2ccc(-n3cc(C4CN(c5ccc(C(=O)N(C)C)cc5)C4)nn3)cn2)c1 [X23436] | – | – | – | – | 6.43 | – | – |
| COc1ccc(OC)c(-c2ccc(-c3cn(C4CN(c5ccc6nn(C)cc6c5)C4)nn3)cn2)c1 [X23479] | – | – | – | – | 6.34 | – | – |
| COc1ccc(F)cc1-c1ccc(-c2cn(C3CN(c4ccc(C(=O)N(C)C)cc4)C3)nn2)cn1 [X23488] | – | – | – | – | 6.21 | – | – |
| COc1ccc(OC)c(-c2ccc(-c3cn(C4CCN(c5ccc(C(=O)N(C)C)cc5)C4)nn3)cn2)c1 (stereo not shown) [X23546] | – | – | – | – | 6.19 | – | – |
